Test results published in PubChem BioAssay AID248 (DTP/NCI, 2004).
“And” between values parts separate entries of the source, which are not always exact repeats. Identical values can stand only once. Inconclusive results and toxic doses are left out.

Test system: L1210 leukemia ip in BDF1 mice, survival T/C
Test: NCI In Vivo Anticancer Drug Screen. Data for tumor model L1210 Leukemia (intraperitoneal) in B6D2F1 (BDF1) mice
Details: higher = longer survival
Procedure, shortened: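 Each compound was tested against a transplantable tumor grown in mice. The endpoint was survival, with treated animals benchmarked against vehicle controls as a simple ratio.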

With `CC[C@H]1CN2CCc3cc(OC)c(OC)cc3[C@@H]2C[C@@H]1C[C@H]1NCCc2cc(OC)c(OC)cc21` the T/C (endpoint: mean survival time, dose: 0.93 mg/kg/injection, schedule: Q04DX003 (ip), vehicle: water) was 108 % of control, the T/C (endpoint: mean survival time, dose: 1.0 mg/kg/injection, schedule: Q01DX009 (ip), vehicle: saline) was 109 % of control and the T/C (endpoint: mean survival time, dose: 1.75 mg/kg/injection, schedule: Q01DX009 (ip), vehicle: saline) was 115 % of control and 121 % of control. The T/C (endpoint: mean survival time, dose: 1.8 mg/kg/injection, schedule: Q01DX009 (ip), vehicle: saline) was 104 % of control and 120 % of control, the T/C (endpoint: mean survival time, dose: 1.86 mg/kg/injection, schedule: Q04DX003 (ip), vehicle: water) was 105 % of control and the T/C (endpoint: mean survival time, dose: 1.88 mg/kg/injection, schedule: Q01DX001 (ip), vehicle: water) was 102 % of control. The T/C (endpoint: mean survival time, dose: 2.0 mg/kg/injection, schedule: Q01DX005 (iv), vehicle: saline) was 108 % of control, the T/C (endpoint: mean survival time, dose: 2.0 mg/kg/injection, schedule: Q01DX005 (oral), vehicle: saline) was 103 % of control and the T/C (endpoint: mean survival time, dose: 2.0 mg/kg/injection, schedule: Q01DX005 (sc), vehicle: saline) was 105 % of control. The T/C (endpoint: mean survival time, dose: 2.0 mg/kg/injection, schedule: Q01DX006 (ip), vehicle: saline) was 112 % of control, the T/C (endpoint: mean survival time, dose: 2.0 mg/kg/injection, schedule: Q01DX009 (ip), vehicle: saline) was 108 % of control and the T/C (endpoint: mean survival time, dose: 2.0 mg/kg/injection, schedule: Q04DX003 (ip), vehicle: saline) was 100 % of control. The T/C (endpoint: mean survival time, dose: 2.0 mg/kg/injection, schedule: Q04DX003 (iv), vehicle: saline) was 110 % of control, the T/C (endpoint: mean survival time, dose: 2.0 mg/kg/injection, schedule: Q04DX003 (oral), vehicle: saline) was 110 % of control and the T/C (endpoint: mean survival time, dose: 2.0 mg/kg/injection, schedule: Q04DX003 (sc), vehicle: saline) was 106 % of control. The T/C (endpoint: mean survival time, dose: 2.0 mg/kg/injection, schedule: Q08DX002 (iv), vehicle: saline) was 106 % of control, the T/C (endpoint: mean survival time, dose: 2.0 mg/kg/injection, schedule: Q08DX002 (oral), vehicle: saline) was 103 % of control and the T/C (endpoint: mean survival time, dose: 2.5 mg/kg/injection, schedule: Q04DX003 (ip), vehicle: water) was 104 % of control. The T/C (endpoint: mean survival time, dose: 3.0 mg/kg/injection, schedule: Q01DX009 (oral), vehicle: saline) was 112 % of control, the T/C (endpoint: mean survival time, dose: 3.75 mg/kg/injection, schedule: Q01DX001 (ip), vehicle: water) was 103 % of control and the T/C (endpoint: mean survival time, dose: 3.75 mg/kg/injection, schedule: Q04DX003 (ip), vehicle: water) was 104 % of control. For the same compound, the T/C (endpoint: mean survival time, dose: 4.0 mg/kg/injection, schedule: Q01DX009 (ip), vehicle: saline) was 97 % of control, the T/C (endpoint: mean survival time, dose: 4.0 mg/kg/injection, schedule: Q04DX003 (ip), vehicle: water) was 113 % of control and 116 % of control and 117 % of control and the T/C (endpoint: mean survival time, dose: 4.0 mg/kg/injection, schedule: Q04DX003 (iv), vehicle: saline) was 108 % of control. For the same compound, the T/C (endpoint: mean survival time, dose: 4.0 mg/kg/injection, schedule: Q04DX003 (oral), vehicle: saline) was 108 % of control, the T/C (endpoint: mean survival time, dose: 4.0 mg/kg/injection, schedule: Q04DX003 (sc), vehicle: saline) was 110 % of control and the T/C (endpoint: mean survival time, dose: 4.0 mg/kg/injection, schedule: Q08DX002 (ip), vehicle: saline) was 112 % of control. The T/C (endpoint: mean survival time, dose: 4.0 mg/kg/injection, schedule: Q08DX002 (oral), vehicle: saline) was 110 % of control, the T/C (endpoint: mean survival time, dose: 4.0 mg/kg/injection, schedule: Q08DX002 (sc), vehicle: saline) was 108 % of control and the T/C (endpoint: mean survival time, dose: 4.0 mg/kg/injection, schedule: Q## X003 (ip), vehicle: saline) was 115 % of control. For the same compound, the T/C (endpoint: mean survival time, dose: 5.0 mg/kg/injection, schedule: Q04DX003 (ip), vehicle: water) was 109 % of control, the T/C (endpoint: mean survival time, dose: 6.0 mg/kg/injection, schedule: Q01DX009 (oral), vehicle: saline) was 108 % of control and the T/C (endpoint: mean survival time, dose: 6.0 mg/kg/injection, schedule: Q01DX015 (ip), vehicle: saline) was 102 % of control. The T/C (endpoint: mean survival time, dose: 7.5 mg/kg/injection, schedule: Q01DX001 (ip), vehicle: water) was 106 % of control, the T/C (endpoint: mean survival time, dose: 8.0 mg/kg/injection, schedule: Q01DX006 (ip), vehicle: saline) was 156 % of control and the T/C (endpoint: mean survival time, dose: 8.0 mg/kg/injection, schedule: Q04DX003 (ip), vehicle: water) was 109 % of control and 124 % of control. The T/C (endpoint: mean survival time, dose: 8.0 mg/kg/injection, schedule: Q04DX003 (iv), vehicle: saline) was 122 % of control, the T/C (endpoint: mean survival time, dose: 8.0 mg/kg/injection, schedule: Q04DX003 (oral), vehicle: saline) was 116 % of control and the T/C (endpoint: mean survival time, dose: 8.0 mg/kg/injection, schedule: Q04DX003 (sc), vehicle: saline) was 113 % of control. For the same compound, the T/C (endpoint: mean survival time, dose: 8.0 mg/kg/injection, schedule: Q08DX002 (ip), vehicle: saline) was 120 % of control, the T/C (endpoint: mean survival time, dose: 8.0 mg/kg/injection, schedule: Q08DX002 (oral), vehicle: saline) was 110 % of control and the T/C (endpoint: mean survival time, dose: 8.0 mg/kg/injection, schedule: Q08DX002 (sc), vehicle: saline) was 111 % of control. The T/C (endpoint: mean survival time, dose: 8.0 mg/kg/injection, schedule: Q## X002 (ip), vehicle: saline) was 118 % of control, the T/C (endpoint: mean survival time, dose: 8.0 mg/kg/injection, schedule: Q## X003 (ip), vehicle: saline) was 123 % of control and the T/C (endpoint: mean survival time, dose: 8.0 mg/kg/injection, schedule: Q## X008 (ip), vehicle: saline) was 110 % of control. The T/C (endpoint: mean survival time, dose: 8.0 mg/kg/injection, schedule: Q## X024 (ip), vehicle: saline) was 117 % of control, the T/C (endpoint: mean survival time, dose: 9.0 mg/kg/injection, schedule: Q01DX Z (ip), vehicle: methylcellulose (MC)) was 92 % of control and the T/C (endpoint: mean survival time, dose: 10.0 mg/kg/injection, schedule: Q04DX009 (ip), vehicle: water) was 121 % of control. For the same compound, the T/C (endpoint: mean survival time, dose: 15.0 mg/kg/injection, schedule: Q01DX001 (ip), vehicle: water) was 117 % of control, the T/C (endpoint: mean survival time, dose: 15.0 mg/kg/injection, schedule: Q04DX003 (ip), vehicle: Klucel (hydroxypropylcellulose) (HPC)) was 152 % of control and the T/C (endpoint: mean survival time, dose: 15.0 mg/kg/injection, schedule: Q04DX009 (ip), vehicle: water) was 160 % of control. For the same compound, the T/C (endpoint: mean survival time, dose: 16.0 mg/kg/injection, schedule: Q01DX001 (ip), vehicle: saline) was 121 % of control, the T/C (endpoint: mean survival time, dose: 16.0 mg/kg/injection, schedule: Q04DX003 (ip), vehicle: water) was 161 % of control and the T/C (endpoint: mean survival time, dose: 16.0 mg/kg/injection, schedule: Q## X003 (ip), vehicle: saline) was 171 % of control. For the same compound, the T/C (endpoint: mean survival time, dose: 20.0 mg/kg/injection, schedule: Q04DX003 (ip), vehicle: Klucel (hydroxypropylcellulose) (HPC)) was 162 % of control and 164 % of control, the T/C (endpoint: mean survival time, dose: 20.0 mg/kg/injection, schedule: Q04DX009 (ip), vehicle: water) was 168 % of control and the T/C (endpoint: mean survival time, dose: 22.2 mg/kg/injection, schedule: Q01DX001 (ip), vehicle: carboxymethylcellulose (CMC)) was 102 % of control. For the same compound, the T/C (endpoint: mean survival time, dose: 25.0 mg/kg/injection, schedule: Q04DX003 (ip), vehicle: saline with Tween-80) was 164 % of control, the T/C (endpoint: mean survival time, dose: 25.0 mg/kg/injection, schedule: Q04DX009 (ip), vehicle: water) was 118 % of control and the T/C (endpoint: mean survival time, dose: 30.0 mg/kg/injection, schedule: Q04DX003 (ip), vehicle: Klucel (hydroxypropylcellulose) (HPC)) was 95 % of control and 107 % of control. For the same compound, the T/C (endpoint: mean survival time, dose: 30.0 mg/kg/injection, schedule: Q04DX003 (ip), vehicle: saline with Tween-80) was 115 % of control, the T/C (endpoint: mean survival time, dose: 32.0 mg/kg/injection, schedule: Q04DX003 (ip), vehicle: water) was 154 % of control and the T/C (endpoint: mean survival time, dose: 32.0 mg/kg/injection, schedule: Q08DX002 (ip), vehicle: saline) was 152 % of control. The T/C (endpoint: mean survival time, dose: 33.35 mg/kg/injection, schedule: Q01DX001 (ip), vehicle: carboxymethylcellulose (CMC)) was 107 % of control, the T/C (endpoint: median survival time, dose: 3.75 mg/kg/injection, schedule: Q04DX003 (ip), vehicle: saline) was 116 % of control and the T/C (endpoint: median survival time, dose: 4.0 mg/kg/injection, schedule: Q04DX003 (ip), vehicle: saline) was 103 % of control. The T/C (endpoint: median survival time, dose: 7.5 mg/kg/injection, schedule: Q04DX003 (ip), vehicle: saline) was 122 % of control, the T/C (endpoint: median survival time, dose: 8.0 mg/kg/injection, schedule: Q01DX001 (ip), vehicle: saline) was 112 % of control and the T/C (endpoint: median survival time, dose: 15.0 mg/kg/injection, schedule: Q04DX003 (ip), vehicle: saline) was 161 % of control and 168 % of control. For the same compound, the T/C (endpoint: median survival time, dose: 16.0 mg/kg/injection, schedule: Q04DX003 (ip), vehicle: saline) was 166 % of control, the T/C (endpoint: median survival time, dose: 20.0 mg/kg/injection, schedule: Q04DX003 (ip), vehicle: saline) was 177 % of control and 179 % of control and the T/C (endpoint: median survival time, dose: 30.0 mg/kg/injection, schedule: Q04DX003 (ip), vehicle: saline) was 101 % of control. The T/C (endpoint: median survival time, dose: 32.0 mg/kg/injection, schedule: Q04DX003 (ip), vehicle: saline) was 110 % of control and the T/C (endpoint: median survival time, dose: 40.0 mg/kg/injection, schedule: Q04DX003 (ip), vehicle: saline) was 69 % of control.

For `CN(C)P1(=O)N(c2ccc(Cl)cc2)P(=O)(N(C)C)N1c1ccc(Cl)cc1` (configuration not stated), the T/C (endpoint: mean survival time, dose: 100.0 mg/kg/injection, schedule: Q04DX002 (ip), vehicle: saline) was 96 % of control, the T/C (endpoint: mean survival time, dose: 200.0 mg/kg/injection, schedule: Q04DX002 (ip), vehicle: saline) was 100 % of control and the T/C (endpoint: mean survival time, dose: 400.0 mg/kg/injection, schedule: Q04DX002 (ip), vehicle: saline) was 93 % of control.
